Laboratory results reported in paper PMC9555642 (PLoS ONE, 2022).

Tests used:
HDAC3 = target: T1, HDAC3 (Homo sapiens, UniProt O15379); assay: HDAC enzymatic activity (Eurofins); assay type: biochemical; conditions: Class I; ACY-1083 mean of two separate measurements, Ricolinostat and Tubastatin A one measurement
T1 construct: purchased Eurofins Pharma Discovery Services 2083

HDAC8 = target: T2, HDAC8 (Homo sapiens, UniProt Q9BY41); assay: HDAC enzymatic activity (Eurofins); assay type: biochemical; conditions: Class I; ACY-1083 mean of two separate measurements, Ricolinostat and Tubastatin A one measurement
T2 construct: purchased Eurofins Pharma Discovery Services 2247
T2 sequence (Q9BY41 1-377): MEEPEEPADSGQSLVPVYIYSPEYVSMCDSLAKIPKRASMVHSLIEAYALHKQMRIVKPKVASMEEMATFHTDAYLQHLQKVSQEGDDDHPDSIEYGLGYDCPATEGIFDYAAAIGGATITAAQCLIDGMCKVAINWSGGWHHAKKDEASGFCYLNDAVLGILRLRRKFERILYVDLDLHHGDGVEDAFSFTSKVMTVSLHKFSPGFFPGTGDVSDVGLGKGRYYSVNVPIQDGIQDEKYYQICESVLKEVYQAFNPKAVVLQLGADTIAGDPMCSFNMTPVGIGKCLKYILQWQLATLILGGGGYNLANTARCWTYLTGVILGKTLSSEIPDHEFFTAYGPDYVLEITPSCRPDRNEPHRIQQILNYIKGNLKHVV

HDAC4 = target: T3, HDAC4 (Homo sapiens, UniProt P56524); assay: HDAC enzymatic activity (Eurofins); assay type: biochemical; conditions: Class IIA; ACY-1083 mean of two separate measurements, Ricolinostat and Tubastatin A one measurement
T3 construct: purchased Eurofins Pharma Discovery Services 2493
T3 sequence (P56524 whole entry): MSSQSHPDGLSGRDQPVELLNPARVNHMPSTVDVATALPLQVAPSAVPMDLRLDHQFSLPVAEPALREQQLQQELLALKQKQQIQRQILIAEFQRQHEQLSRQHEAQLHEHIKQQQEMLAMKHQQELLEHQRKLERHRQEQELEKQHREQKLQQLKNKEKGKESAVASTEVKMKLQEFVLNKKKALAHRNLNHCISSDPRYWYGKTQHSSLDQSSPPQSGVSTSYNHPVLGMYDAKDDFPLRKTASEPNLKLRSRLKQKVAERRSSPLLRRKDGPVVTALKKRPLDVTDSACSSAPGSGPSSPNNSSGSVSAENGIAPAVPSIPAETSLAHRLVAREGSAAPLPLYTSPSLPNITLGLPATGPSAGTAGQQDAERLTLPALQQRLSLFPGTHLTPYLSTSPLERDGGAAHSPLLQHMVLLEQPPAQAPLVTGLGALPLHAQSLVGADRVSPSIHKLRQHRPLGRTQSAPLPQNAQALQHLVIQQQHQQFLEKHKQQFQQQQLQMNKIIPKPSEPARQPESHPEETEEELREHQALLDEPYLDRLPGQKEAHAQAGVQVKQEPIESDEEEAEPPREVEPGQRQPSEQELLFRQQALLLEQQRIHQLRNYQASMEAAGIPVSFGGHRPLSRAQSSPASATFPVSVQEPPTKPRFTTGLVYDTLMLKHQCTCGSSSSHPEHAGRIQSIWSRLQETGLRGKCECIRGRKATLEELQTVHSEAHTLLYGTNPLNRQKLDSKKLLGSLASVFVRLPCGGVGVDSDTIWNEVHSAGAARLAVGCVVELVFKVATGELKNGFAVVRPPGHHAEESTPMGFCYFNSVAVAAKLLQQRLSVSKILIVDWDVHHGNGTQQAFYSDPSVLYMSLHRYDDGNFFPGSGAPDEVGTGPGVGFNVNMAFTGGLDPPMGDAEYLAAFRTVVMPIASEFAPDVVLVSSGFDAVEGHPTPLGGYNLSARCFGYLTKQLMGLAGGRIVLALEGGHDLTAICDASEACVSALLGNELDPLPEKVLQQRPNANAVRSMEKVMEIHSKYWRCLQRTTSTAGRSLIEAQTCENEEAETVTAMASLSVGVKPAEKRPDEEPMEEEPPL

HDAC5 = target: T4, HDAC5 (Homo sapiens, UniProt Q9UQL6); assay: HDAC enzymatic activity (Eurofins); assay type: biochemical; conditions: Class IIA; ACY-1083 mean of two separate measurements, Ricolinostat and Tubastatin A one measurement
T4 construct: purchased Eurofins Pharma Discovery Services 2494
T4 sequence (Q9UQL6 whole entry): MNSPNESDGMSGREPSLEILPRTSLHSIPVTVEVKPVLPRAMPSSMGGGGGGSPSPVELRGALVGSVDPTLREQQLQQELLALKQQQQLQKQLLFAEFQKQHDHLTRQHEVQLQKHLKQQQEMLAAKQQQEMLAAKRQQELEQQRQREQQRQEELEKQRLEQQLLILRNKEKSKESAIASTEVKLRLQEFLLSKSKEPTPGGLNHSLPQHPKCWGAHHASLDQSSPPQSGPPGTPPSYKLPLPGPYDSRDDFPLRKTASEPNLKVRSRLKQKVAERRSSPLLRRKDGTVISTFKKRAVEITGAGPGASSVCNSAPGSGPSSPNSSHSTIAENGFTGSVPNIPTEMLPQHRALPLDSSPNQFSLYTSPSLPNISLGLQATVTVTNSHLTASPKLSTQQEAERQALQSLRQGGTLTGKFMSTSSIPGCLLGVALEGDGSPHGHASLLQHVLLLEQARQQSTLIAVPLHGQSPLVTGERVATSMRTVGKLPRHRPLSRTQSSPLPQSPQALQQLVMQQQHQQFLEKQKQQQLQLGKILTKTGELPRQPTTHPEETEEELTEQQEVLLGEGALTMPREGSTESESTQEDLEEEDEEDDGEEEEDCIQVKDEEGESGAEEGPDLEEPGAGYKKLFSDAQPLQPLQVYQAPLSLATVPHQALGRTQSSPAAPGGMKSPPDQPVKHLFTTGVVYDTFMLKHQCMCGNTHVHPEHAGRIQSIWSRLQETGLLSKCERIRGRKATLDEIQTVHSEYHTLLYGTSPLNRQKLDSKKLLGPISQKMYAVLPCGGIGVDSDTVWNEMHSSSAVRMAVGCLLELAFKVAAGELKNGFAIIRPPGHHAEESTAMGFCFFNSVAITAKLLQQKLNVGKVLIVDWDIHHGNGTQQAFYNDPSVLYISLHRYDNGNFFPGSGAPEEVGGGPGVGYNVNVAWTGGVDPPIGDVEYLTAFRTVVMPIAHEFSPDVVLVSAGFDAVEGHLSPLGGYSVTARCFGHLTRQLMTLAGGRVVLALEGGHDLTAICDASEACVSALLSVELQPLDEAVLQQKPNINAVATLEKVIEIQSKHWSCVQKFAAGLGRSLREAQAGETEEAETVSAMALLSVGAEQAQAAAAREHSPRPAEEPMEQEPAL

HDAC7 = target: T5, HDAC7 (Homo sapiens, UniProt Q8WUI4); assay: HDAC enzymatic activity (Eurofins); assay type: biochemical; conditions: Class IIA; ACY-1083 mean of two separate measurements, Ricolinostat and Tubastatin A one measurement
T5 construct: purchased Eurofins Pharma Discovery Services 2610
T5 sequence (Q8WUI4 1-952): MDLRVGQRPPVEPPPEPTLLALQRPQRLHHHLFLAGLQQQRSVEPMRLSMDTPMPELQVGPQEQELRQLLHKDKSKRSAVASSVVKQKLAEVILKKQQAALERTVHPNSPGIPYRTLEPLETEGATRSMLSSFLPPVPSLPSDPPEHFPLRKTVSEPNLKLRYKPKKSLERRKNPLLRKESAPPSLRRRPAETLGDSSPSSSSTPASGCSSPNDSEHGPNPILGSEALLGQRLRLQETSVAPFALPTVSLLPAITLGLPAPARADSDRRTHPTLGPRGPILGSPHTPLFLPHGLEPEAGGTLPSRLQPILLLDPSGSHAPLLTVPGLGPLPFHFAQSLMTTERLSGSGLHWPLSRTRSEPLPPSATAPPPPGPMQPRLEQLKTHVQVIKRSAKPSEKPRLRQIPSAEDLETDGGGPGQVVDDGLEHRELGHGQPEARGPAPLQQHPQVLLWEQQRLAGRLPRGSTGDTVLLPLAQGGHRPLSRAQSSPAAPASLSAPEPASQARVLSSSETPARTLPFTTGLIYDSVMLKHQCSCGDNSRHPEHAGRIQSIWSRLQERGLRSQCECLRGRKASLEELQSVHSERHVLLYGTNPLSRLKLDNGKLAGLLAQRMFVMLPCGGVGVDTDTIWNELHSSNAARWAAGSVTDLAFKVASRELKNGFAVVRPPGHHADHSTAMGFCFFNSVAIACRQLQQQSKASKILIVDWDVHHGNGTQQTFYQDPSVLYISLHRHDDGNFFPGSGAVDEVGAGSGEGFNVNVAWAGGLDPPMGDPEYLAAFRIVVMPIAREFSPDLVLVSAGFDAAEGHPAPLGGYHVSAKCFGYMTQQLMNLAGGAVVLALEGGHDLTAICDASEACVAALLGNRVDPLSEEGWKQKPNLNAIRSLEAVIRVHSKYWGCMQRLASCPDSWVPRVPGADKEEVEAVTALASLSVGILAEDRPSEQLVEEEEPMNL

[1] = target: T6, dopamine active transporter (DAT) (Homo sapiens, UniProt Q01959); assay: Secondary pharmacology panel (Eurofins); assay type: binding
T6 construct: purchased Eurofins Pharma Discovery Services
T6 sequence (Q01959 whole entry, species assumed): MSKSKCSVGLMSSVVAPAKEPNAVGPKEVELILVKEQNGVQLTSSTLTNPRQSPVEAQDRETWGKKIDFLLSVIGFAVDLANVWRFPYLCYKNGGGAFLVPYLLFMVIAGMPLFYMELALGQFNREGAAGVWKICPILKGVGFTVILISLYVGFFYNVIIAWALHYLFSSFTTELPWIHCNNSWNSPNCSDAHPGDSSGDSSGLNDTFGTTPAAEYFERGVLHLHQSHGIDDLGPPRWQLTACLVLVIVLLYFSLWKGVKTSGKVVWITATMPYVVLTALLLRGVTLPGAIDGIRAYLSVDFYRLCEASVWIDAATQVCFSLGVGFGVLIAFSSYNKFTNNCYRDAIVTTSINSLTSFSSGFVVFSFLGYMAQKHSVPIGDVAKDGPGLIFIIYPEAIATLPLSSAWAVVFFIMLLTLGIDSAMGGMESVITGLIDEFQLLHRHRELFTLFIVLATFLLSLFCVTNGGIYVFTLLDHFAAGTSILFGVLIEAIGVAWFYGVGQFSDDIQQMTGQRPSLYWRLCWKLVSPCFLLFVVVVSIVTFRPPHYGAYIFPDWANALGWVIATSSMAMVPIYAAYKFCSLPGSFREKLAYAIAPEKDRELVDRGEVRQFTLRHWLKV
Protocol: (§1) Second pharmacology screening was performed at Eurofins Pharma Discovery Services in a panel of 190 in vitro radioligand binding and enzyme assays covering a diverse set of enzymes, receptors, ion channels, and transporters.

Sigma-1 receptor = target: T7, Sigma-1 receptor (Homo sapiens, UniProt Q99720); assay: Secondary pharmacology panel (Eurofins); assay type: binding
T7 construct: purchased Eurofins Pharma Discovery Services
T7 sequence (Q99720 whole entry, species assumed): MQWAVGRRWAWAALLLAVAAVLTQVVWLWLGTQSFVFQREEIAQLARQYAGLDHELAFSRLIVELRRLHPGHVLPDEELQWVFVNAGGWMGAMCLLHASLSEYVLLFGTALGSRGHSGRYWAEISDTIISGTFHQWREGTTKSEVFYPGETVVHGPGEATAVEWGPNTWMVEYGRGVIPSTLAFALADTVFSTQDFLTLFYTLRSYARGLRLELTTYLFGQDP
Protocol: as §1

hERG = target: T8, hERG (Homo sapiens, UniProt Q12809); assay: Cardiovascular ion channel panel, SyncroPatch 384PE patch clamp; assay type: cell-based; conditions: CHO K1 cell line, room temperature, 6 point cumulative assay
T8 construct: expressed in transfected cells; host or cells: Chinese hamster ovary K1 cell line
T8 sequence (Q12809 whole entry): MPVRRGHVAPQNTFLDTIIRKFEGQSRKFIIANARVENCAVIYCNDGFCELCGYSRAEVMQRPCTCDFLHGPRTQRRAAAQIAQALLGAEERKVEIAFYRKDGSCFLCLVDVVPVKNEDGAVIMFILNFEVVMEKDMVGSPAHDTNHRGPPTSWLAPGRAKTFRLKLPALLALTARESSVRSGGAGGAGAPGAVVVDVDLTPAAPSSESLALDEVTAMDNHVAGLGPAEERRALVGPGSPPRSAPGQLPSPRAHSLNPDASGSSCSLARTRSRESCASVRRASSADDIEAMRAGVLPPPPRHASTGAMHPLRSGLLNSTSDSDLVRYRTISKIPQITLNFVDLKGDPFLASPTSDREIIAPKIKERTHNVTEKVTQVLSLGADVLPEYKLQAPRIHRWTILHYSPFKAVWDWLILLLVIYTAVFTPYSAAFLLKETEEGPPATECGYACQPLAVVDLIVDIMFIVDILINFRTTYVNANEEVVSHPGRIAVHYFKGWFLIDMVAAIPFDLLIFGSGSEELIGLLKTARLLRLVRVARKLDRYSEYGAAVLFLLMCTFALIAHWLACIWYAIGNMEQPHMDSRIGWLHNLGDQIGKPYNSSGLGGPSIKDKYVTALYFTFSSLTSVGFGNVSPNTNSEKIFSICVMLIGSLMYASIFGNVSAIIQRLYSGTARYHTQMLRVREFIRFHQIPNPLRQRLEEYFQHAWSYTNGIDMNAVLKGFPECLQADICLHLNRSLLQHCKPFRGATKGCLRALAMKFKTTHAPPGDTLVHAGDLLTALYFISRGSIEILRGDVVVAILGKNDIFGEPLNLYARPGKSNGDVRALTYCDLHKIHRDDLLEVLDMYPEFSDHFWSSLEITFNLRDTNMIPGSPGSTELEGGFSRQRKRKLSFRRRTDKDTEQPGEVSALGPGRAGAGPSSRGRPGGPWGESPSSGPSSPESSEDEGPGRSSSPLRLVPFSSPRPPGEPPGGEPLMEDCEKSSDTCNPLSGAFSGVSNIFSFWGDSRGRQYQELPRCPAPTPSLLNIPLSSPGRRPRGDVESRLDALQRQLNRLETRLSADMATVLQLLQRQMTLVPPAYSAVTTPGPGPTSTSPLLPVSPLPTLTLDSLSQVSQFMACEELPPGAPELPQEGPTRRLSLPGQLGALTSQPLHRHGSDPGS

COPD HBEC ALI cultures [2] = assay: TNF challenge model in ALI, TEER and FITC-dextran permeability; assay type: cell-based, human; conditions: 10 μM, four COPD donors
COPD HBEC ALI cultures [3] = assay: Cytokine release in basolateral supernatants (MSD), TNF challenge; assay type: cell-based, human; conditions: 10 μM, TNF 5, 20 and 50 ng/ml, day seven
Protocol: TEER and permeability were measured after seven days.
To assess cytokines released, basolateral supernatants were collected on day seven and immediately frozen at -80°C until MSD analysis of IL-6, CCL2 and CXCL10. In short, U-PLEX MSD plates (Mesoscale Discovery, Rockville, Maryland, USA) were coated, washed and stored overnight. Standard curves were prepared and added in duplicates on each plate. Supernatants were thawed on ice and added to the plates, which were incubated on an orbital shaker for one hour before sulfo-tagged antibodies were added and incubated for another hour. Plates were washed, read buffer added and read on MESO SECTOR S 600 (Mesoscale Discovery, Rockville, Maryland, USA). Data was plotted as fold change to DMSO control.

T1 sequence (O15379 whole entry): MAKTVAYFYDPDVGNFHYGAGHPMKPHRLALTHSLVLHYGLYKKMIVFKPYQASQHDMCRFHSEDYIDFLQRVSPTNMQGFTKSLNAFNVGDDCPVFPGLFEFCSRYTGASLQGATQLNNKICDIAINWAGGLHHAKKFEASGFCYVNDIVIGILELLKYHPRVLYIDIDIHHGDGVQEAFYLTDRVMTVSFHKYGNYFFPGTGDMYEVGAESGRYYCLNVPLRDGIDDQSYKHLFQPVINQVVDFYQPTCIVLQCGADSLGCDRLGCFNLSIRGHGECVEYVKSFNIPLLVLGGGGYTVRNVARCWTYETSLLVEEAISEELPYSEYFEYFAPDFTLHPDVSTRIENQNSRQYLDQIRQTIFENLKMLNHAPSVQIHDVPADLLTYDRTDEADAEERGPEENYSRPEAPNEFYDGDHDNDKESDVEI
T1 sequence (Q9Y618 395-489 partner limits assumed): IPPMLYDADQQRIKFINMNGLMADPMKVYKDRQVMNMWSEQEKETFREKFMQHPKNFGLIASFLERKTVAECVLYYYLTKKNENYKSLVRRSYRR

## ACY-1083
HDAC3
  IC50: > 87.5 µM
HDAC8
  IC50: 15.8 µM
HDAC4
  IC50: 12.5 µM
HDAC5
  IC50: 4.17 µM
HDAC7
  IC50: 6.51 µM
[1]
  IC50: 0.37 µM
Sigma-1 receptor
  IC50: 17 µM
hERG
  activity on hERG: > 30 µM
COPD HBEC ALI cultures [2]; TNF 0, 5, 20 and 50 ng/mL, after seven days
  TEER vs DMSO control: higher TEER at all concentrations of TNF
COPD HBEC ALI cultures [2]; TNF 5, 20 and 50 ng/mL
  paracellular permeability vs DMSO control: lower permeability at 5, 20 and 50 ng/mL TNF
COPD HBEC ALI cultures [3]
  CCL2 protein induction in basolateral supernatant: reduced
  CXCL10 protein induction in basolateral supernatant: reduced
  IL-6 protein induction in basolateral supernatant: reduced
